# Assay results reported in patent US5607836A, “Methods of detecting compounds which bind to the P2U receptor” (The Curators of the University of Missouri, priority 1995, dated 1997).
# Like-named read-outs stand apart in the source and are kept apart here.
# What was measured:
# murine P2U receptor [1] = biological target: T1, murine P2U receptor (Mus musculus, UniProt P35383); experiment: cytoplasmic free calcium (fura-2) in K562 cells transfected with P2U receptor cDNA; assay type: cell-based; design: missing the first 6 nucleotides of the 5' untranslated region of the full length cDNA; expressed in transfected cells; host or cells: K562 human leukemia cells; details: for increase in [Ca^2+ ]i: K562 cells stably or transiently transfected with P2U receptor cDNA; for time of return of [Ca^2+ ]i to the basal level / time to maximal [Ca^2+ ]i after nucleotide addition: K562 stable or transient transfectants; for effect of depletion of extracellular Ca^2+ by EGTA on nucleotide-mediated increases in [Ca^2+ ]i: stable transfectants
# Description: (§1) Stable and Transient Transfections. To generate stable transfectants expressing the P2U receptor, K562 cells were transfected by electroporation (F. Toneguzzo et al., Mol. Cell. Biol. 6, 703 (1986)) with the neomycin-resistance plasmid pP2R1. pP2R1 is pRc/CMV containing a ~2.4 kb HindIII-NotI fragment of the P2U receptor cDNA, missing the first 6 nucleotides of the 5' untranslated region of the full length cDNA. control cells were stably transfected with pRc/CMV. Cells were sedimented at 200×g for 5 min at room temperature, rinsed once with phosphate-buffered saline (10 mM NaH2 PO4, pH 7.4, 120 mM NaCl, 5 mM KCl), and resuspended in phosphate-buffered saline at a final concentration of 4×10^7 cells/ml. The cells were chilled on ice for 10 min and then transferred in 0.5 ml aliquots to prechilled electroporation cuvettes. DNA (40 μg of pP2R1 linearized with PvuI) was added to the cell suspension, the cells were subjected to a single electrical pulse (1 kV, 25 μF) and the cuvettes were placed on ice. After 10 min, growth medium was added and the cells were incubated at 37° C. Fresh growth medium supplemented with 0.7 mg/ml G418 was added 48 h […], and the cells were incubated for 2 weeks to select for stable transfectants expressing neomycin resistance. Clonal cell lines were then isolated by transferring single cells to individual wells of a 96-well culture plate: each well contained 0.2 ml of conditioned growth medium filtered from K562 stock cultures, 0.2 ml of fresh growth medium, and 0.4 mg/ml G418. The clonal cell lines were cultured for three to four weeks in growth medium containing 0.4 mg/ml G418 and assayed for P2U receptor, the results shown are from one representative clonal cell line.
# To generate transient transfectants, K562 cells were transfected as above with 40 μg unlinearized plasmid pCCM6×1 or pP2R (Lustig et al., supra 1993). Cells were incubated for 48 h at 37° C. in 100 mm culture dishes containing 12 ml of growth medium and assayed for P2U receptor activity.
# (§2) Cytoplasmic Free Calcium Measurements. Cells were sedimented at 200×g for 5 min at room temperature and washed once with 10 ml of Hepes-bufferedsaline (20 mM Hepes, pH 7.4, 120 mM NaCl, 5 mM KCl, 1 mM MgCl2, and 1 mM CaCl2). Washed cells were suspended in Hepes-buffered saline at 5×10^5 cells/ml, and stored (for up to 4 h) at 37° C. The concentration of cytoplasmic free calcium, [Ca^2+ ]i, was measured by dual-excitation spectrofluorometric analysis of cells loaded with fura-2, a fluorescent probe for calcium.
# murine P2U receptor [2] = biological target: T1, murine P2U receptor; experiment: intracellular phosphatidylinositol 4,5-bisphosphate (PIP2) in K562 stable transfectants; assay type: cell-based; details: transient
# Description: as §1, with “Clonal cell lines were then isolated by transferring single cells to individual wells of a 96-well culture plate: each well contained 0.2 ml of conditioned growth medium filtered from K562 stock cultures, 0.2 ml of fresh growth medium, and 0.4 mg/ml G418. The clonal cell lines were cultured for three to four weeks in growth medium containing 0.4 mg/ml G418 and assayed for P2U receptor, the results shown are from one representative clonal cell line.” left out
# [3] = biological target: histidine-tagged P2U receptor (P2HIS) (Mus musculus, UniProt P35383); experiment: cytoplasmic free calcium in K562 cells stably expressing histidine-tagged P2U receptor (P2HIS); assay type: cell-based, murine
# Procedure: as §2
# Construction and Purification of the Histidine-tagged P2U Receptor (P2HIS). To produce P2HIS, 70 pmoles of the primers CGCACCATTGCCTTGGTAC (SEQ ID NO:3)(which contains a BstXI site) and […] (SEQ ID NO:4) (which contains an EcoRV site, stop codon, and the hexahistidine coding sequence) were incubated with 50 ng of pP2R, 20 nmoles of each dNTP, 1X reaction buffer (20 mM Tris-HCl, pH 8.2, 10 mM KCl, 6 mM (NH4)2 SO4, 1.5 mM MgCl2, and 0.1% Triton X-100), and H2 O to bring the reaction mixture to a 100 μl volume. […] The reaction mixture was overlayed with 50 μl of mineral oil and subjected to 30 PCR cycles (95° C. for 1.5 min, 55° C. for 1.5 min, and 72° C. for 2 min). The PCR product, a single 400 bp band, was subcloned into the unique BstXI-EcoRV restriction site of pP2R to generate pP2HIS. […]
# [4] = test system: 1321N1 human astrocytoma cells (uninfected or LSN-infected); experiment: intracellular calcium by fura-2 fluorescence in uninfected or LSN-infected 1321N1 control cells; assay type: cell-based; details: uninfected or LSN-infected controls
# Procedure: Heteroloqous Expression. A retroviral vector-containing plasmid, pLHP2USN, was constructed by insertion of the cloned CF/T43 cDNA into the EcoRI and XhoI sites of pLXSN (A. Miller and G. Rosman, Biotechniques 7, 980 (1989)). An amphotrophic packaging cell line, PA317, was used to produce the LHP2USN retroviral vector and a control vector containing Neor only (LSN). Clonal human astrocytoma cells 1321N1, UNC strain, generously provided by T. K. Harden (UNC, Chapel Hill, N.C.), were plated at 150,000 cells per 60-mm dish and infected with LHP2USN or LSN (2 hr, 4 ug/ml Polybrene) and after 48 hr selected with 600 ug/ml G418 (Life Technologies, Inc., Gaithersburg, Md., U.S.A.). To assay for receptor activity, intracellular calcium concentration was measured in confluent cells on coverslips by fura-2 fluorescence using microspectrofluorimetry as previously described (S. Mason et al., Br. J. Pharmacol. 103, 1649 (1991)). Measurement of cell inositol phosphate formation was as described by H. Brown et al., Mol. Pharmacol. 40, 648 (1991), in accordance with known techniques.
# A retrovirus expression system was employed to study the cloned CF/T43 HP2U cDNA in 1321N1 human astrocytoma cells. The effect of extracellular nuceotides on intracellular calcium, as measured by fura-2 fluorescence, was assessed in CF/T43 cells, uninfected 1321N1 cells, and 1321N1 cells infected with retroviral vector containing either the cloned HP2U or no insert (LSN).
# murine P2U receptor [5] = biological target: T1, murine P2U receptor; design: host or cells: Xenopus oocytes; details: Lustig et al. 1993, cited from earlier work; for EC50: Xenopus oocytes, read-out: EC50 in Xenopus oocytes expressing the P2U receptor; for activation of the cloned murine receptor: background
# T1 sequence (P35383 whole entry): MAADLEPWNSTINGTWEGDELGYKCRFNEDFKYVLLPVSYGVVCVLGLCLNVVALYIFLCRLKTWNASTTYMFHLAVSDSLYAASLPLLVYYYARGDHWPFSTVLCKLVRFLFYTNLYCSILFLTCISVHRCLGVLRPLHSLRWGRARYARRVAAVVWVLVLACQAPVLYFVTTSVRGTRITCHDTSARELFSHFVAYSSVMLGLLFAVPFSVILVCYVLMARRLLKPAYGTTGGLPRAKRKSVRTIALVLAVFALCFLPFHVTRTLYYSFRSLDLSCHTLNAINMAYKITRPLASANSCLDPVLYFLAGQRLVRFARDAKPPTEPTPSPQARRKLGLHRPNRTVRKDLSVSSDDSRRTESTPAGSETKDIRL
# Sequence of histidine-tagged P2U receptor (P2HIS) (P35383 whole entry): as above
Compound,EC50 (murine P2U receptor [1]) [µM],increase in [Ca^2+ ]i (murine P2U receptor [1]),time of return of [Ca^2+ ]i to the basal level (murine P2U receptor [1]) [min],time to maximal [Ca^2+ ]i after nucleotide addition (murine P2U receptor [1]) [s],effect of depletion of extracellular Ca^2+ by EGTA on nucleotide-mediated increases in [Ca^2+ ]i (murine P2U receptor [1]),"reduction of intracellular levels of phosphatidylinositol 4,5-bisphosphate (PIP2) (murine P2U receptor [2])",[Ca^2+ ]i in K562 cells stably expressing P2HIS [3],[Ca^2+ ]i response of uninfected or LSN-infected 1321N1 cells [4],EC50 (murine P2U receptor [5]) [µM],activation of the cloned murine receptor (murine P2U receptor [5])
O=c1ccn([C@@H]2O[C@H](COP(=O)(O)OP(=O)(O)OP(=O)(O)O)[C@@H](O)[C@H]2O)c(=O)[nH]1 [UTP],~0.8,two-fold increase,≤ 1,≤ 5,not affected,approximately 10%,increase in [Ca^2+ ]i,no effect,~1,activated
Nc1ncnc2c1ncn2[C@@H]1O[C@H](COP(=O)(O)OP(=O)(O)OP(=O)(O)O)[C@@H](O)[C@H]1O [ATP],~1.4,two-fold increase,≤ 1,≤ 5,not affected,approximately 10%,increase in [Ca^2+ ]i,the same result observed with UTP,~1,activated
